Source: US20180325889A1, “IMMUNOREGULATORY AGENTS” (FLEXUS BIOSCIENCES, INC., priority 2014, published 2018)
pIC50: −log10 of the molar value.

Target: T1, human IDO1/HEK293 cells (Homo sapiens, UniProt P14902)
T1 construct: expressed in transfected cells
Experiment: HEK Human IDO-1 cell-based IDO inhibition assay (kynurenine production)
Conditions: HEK293 cells stably expressing human IDO1, 20 hours incubation, absorbance at 490 nm; read-out: HEK Human IDO-1 Bio Activity (IDO IC50)
Method: They were cultured in medium (DMEM with 10% FBS) containing 1 mg/ml G418 for two weeks.
The human IDO1/HEK293 cells were seeded at 10,000 cells per 50 μL per well with RPMI/phenol red free media contains 10% FBS in a 384-well black wall clear bottom tissue culture plate (Matrix Technologies LLC) 100 nL of certain concentration of compound was then added to each well using ECHO liquid handling systems. The cells were incubated for 20 hours in 37° C. incubator with 5% CO2.
The compound treatments were stopped by adding trichloroacetic acid (Sigma-Aldrich) to a final concentration at 0.2%. The cell plate was further incubated at 50° C. for 30 minute. The equal volume supernatant (20 μL) and 0.2% (w/v) Ehrlich reagent (4-dimethylaminobenzaldehyde, Sigma-Aldrich) in glacial acetic acid were mixed in a new clear bottom 384-well plate. This plate was then incubated at room temperature for 30 minute. The absorbance at 490 nm was measured on Envision plate reader.

T1 sequence (P14902 whole entry): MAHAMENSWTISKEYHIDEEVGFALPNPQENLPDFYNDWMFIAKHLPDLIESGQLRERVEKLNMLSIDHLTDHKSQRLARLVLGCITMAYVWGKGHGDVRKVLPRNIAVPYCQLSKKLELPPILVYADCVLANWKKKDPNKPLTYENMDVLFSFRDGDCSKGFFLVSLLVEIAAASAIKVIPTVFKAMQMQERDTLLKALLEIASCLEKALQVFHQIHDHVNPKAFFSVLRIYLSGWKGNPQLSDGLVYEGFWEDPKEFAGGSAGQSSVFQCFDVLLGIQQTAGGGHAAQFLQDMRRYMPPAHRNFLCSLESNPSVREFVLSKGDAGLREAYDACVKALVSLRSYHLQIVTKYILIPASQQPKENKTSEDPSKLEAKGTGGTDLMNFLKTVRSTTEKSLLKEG

pIC50 | Compound
> 6.60 | CCC(NC(=O)c1ccc(Cl)cc1)C1CCC(c2ccnc3ccc(F)cc23)CC1 (single isomer, unassigned) [Example 164a, 4-Chloro-N-(1-(4-(6-fluoroquinolin-4-yl)cyclohexyl)propyl)benzamide]
> 5.70 | CC(C(=O)N[C@H]1CC[C@H](c2ccnc3ccc(F)cc32)CC1)c1ccc(Cl)cc1 (stereo partly drawn) [Example 145, 2-(4-chlorophenyl)-N-(trans-4-(6-fluoroquinolin-4-yl)cyclohexyl)propanamide]
> 7.30 | C[C@@H](NC(=O)c1ccc(Cl)c(Cl)c1)[C@H]1CC[C@@H](c2ccnc3ccc(F)cc32)CC1 [Example 59, 3,4-dichloro-N-((R)-1-((1s,4S)-4-(6-fluoroquinolin-4-yl)cyclohexyl)ethyl)benzamide]
> 7.30 | C[C@@H](NC(=O)c1cccc(F)c1)[C@H]1CC[C@@H](c2ccnc3ccc(F)cc32)CC1 [Example 55, 3-fluoro-N-((R)-1-((1S,4S)-4-(6-fluoroquinolin-4-yl)cyclohexyl)ethyl)benzamide]
> 7.30 | C[C@@H](NC(=O)c1ccc(C2CC2)cc1)[C@H]1CC[C@@H](c2ccnc3ccc(F)cc32)CC1 [Example 247, 4-cyclopropyl-N-((R)-1-((1s,4S)-4-(6-fluoroquinolin-4-yl)cyclohexyl)ethyl)benzamide]
> 7.30 | O=C(Nc1ccc(Cl)cc1)N[C@H]1CC[C@H](c2ccnc3ccc(F)cc32)CC1 [Example 119, 1-(4-Chlorophenyl)-3-(trans-4-(6-fluoroquinolin-4-yl)cyclohexyl)urea]
> 6.60 | O=C(Nc1ccc(Cl)cc1)N[C@H]1CC[C@@H](c2ccnc3ccc(F)cc32)CC1 [Example 125, 1-(4-Chlorophenyl)-3-(cis-4-(6-fluoroquinolin-4-yl)cyclohexyl)urea]
> 7.30 | COc1cccc(C(=O)N[C@H](C)[C@H]2CC[C@@H](c3ccnc4ccc(F)cc43)CC2)c1 [Example 53, N-((R)-1-((1s,4S)-4-(6-fluoroquinolin-4-yl)cyclohexyl)ethyl)-3-methoxybenzamide]
> 5.70 | O=C(Cc1ccc(Cl)cc1)N[C@H]1CC[C@H](c2ccnc3ccc(F)cc32)CC1 [Example 144, 2-(4-Chlorophenyl)-N-(trans-4-(6-fluoroquinolin-4-yl)cyclohexyl)acetamide]
> 7.30 | C[C@@H](NC(=O)c1ccc(-c2ncc(C#N)s2)cc1)[C@H]1CC[C@@H](c2ccnc3ccc(F)cc32)CC1 [Example 253, 4-(5-cyanothiazol-2-yl)-N-((R)-1-((1s,4S)-4-(6-fluoroquinolin-4-yl)cyclohexyl)ethyl)benzamide]
> 5.70 | Cc1cccc(S(=O)(=O)N[C@H](C)[C@H]2CC[C@@H](c3ccnc4ccc(F)cc43)CC2)c1 [Example 40, N—((R)-1-((1 s,4S)-4-(6-Fluoroquinolin-4-yl)cyclohexyl)ethyl)-3-methylbenzenesulfonamide]
> 7.30 | O=C(Nc1ccc(Cl)cc1F)N[C@H]1CC[C@H](c2ccnc3ccc(F)cc32)CC1 [Example 120, 1-(4-chloro-2-fluorophenyl)-3-(trans-4-(6-fluoroquinolin-4-yl)cyclohexyl)urea]
> 6.60 | O=C(NCC1CCN(c2ccnc3ccc(F)cc23)CC1)c1ccc(Cl)c(Cl)c1 [Example 87, 3,4-Dichloro-N-((1-(6-fluoroquinolin-4-yl)piperidin-4-yl)methyl)benzamide]
> 5.70 | COc1cccc(S(=O)(=O)N[C@H](C)[C@H]2CC[C@@H](c3ccnc4ccc(F)cc43)CC2)c1 [Example 45, N-((R)-1-((1s,4S)-4-(6-fluoroquinolin-4-yl)cyclohexyl)ethyl)-3-methoxybenzenesulfonamide]
> 5.70 | CCC(NC(=O)c1ccc(C#N)cc1)C1CCC(c2ccnc3ccc(F)cc23)CC1 (single isomer, unassigned) [Example 165a, 4-Cyano-N-(1-(4-(6-fluoroquinolin-4-yl)cyclohexyl)propyl)benzamide]

Continued, compound first:

Compound | pIC50
Cc1nccc(OC2CCC(C(C)NC(=O)c3ccc(F)cc3)CC2)c1Cl (racemic) [Example 208] | > 6.60
O=C(Nc1ccc(-c2ccccc2)cc1)N1CCN(c2ccnc3ccc(F)cc23)CC1 [Example 84, N-([1,1′-Biphenyl]-4-yl)-4-(6-fluoroquinolin-4-yl)piperazine-1-carboxamide] | > 5.70
Cc1ccc(C(=O)NC(C)C2CCC(Oc3ccnc(C)c3Cl)CC2)cc1 (racemic) [Example 210] | > 6.60
CC1(CNC(=O)c2ccc(Cl)cc2)CCN(c2ccnc(C(F)(F)F)c2)CC1 [Example 227, 4-Chloro-N-((4-methyl-1-(2-(trifluoromethyl)pyridin-4-yl)piperidin-4-yl)methyl)benzamide] | > 5.70
(R)-1-(cis-4-(6-fluoroquinolin-4-yl)cyclohexyl)-N-methylethanamine [Example 194] | > 7.30
Cc1cc(C2CCC(C(C)NC(=O)c3ccc(Cl)cc3)CC2)ccn1 (single isomer, unassigned) [Example 157e, 4-Chloro-N-(1-(4-(2-methylpyridin-4-yl)cyclohexyl)ethyl) Benzamide] | > 5.70
CCC(NC(=O)c1ccc(Cl)cc1)C1CCC(c2cccc(C(F)F)n2)CC1 (single isomer, unassigned) [Example 231e, 4-chloro-N-(1-(4-(6-(difluoromethyl)pyridin-2-yl)cyclohexyl)propyl)benzamide] | > 7.30
CC(NC(=O)c1ccc(Cl)cc1)C1CCC(c2ccnc(C(F)(F)F)c2)CC1 (single isomer, unassigned) [Example 212, 4-chloro-N-(1-(4-(2-(trifluoromcthyl)pyridin-4-yl)cyclohexyl)ethyl)benzamide] | > 5.70
COc1ccc(C(=O)NC(C)C2CCC(Oc3ccnc(C)c3Cl)CC2)cc1 (racemic) [Example 209] | > 6.60
CC(NC(=O)c1ccc(Cl)cc1)C1CCC(c2ccc(C(F)(F)F)nc2)CC1 (single isomer, unassigned) [Example 217, 4-chloro-N-(1-(4-(6-(trifluoromethyl)pyridin-3-yl)cyclohexyl)ethyl)benzamide] | > 5.70
CC1(CNC(=O)c2ccc(Cl)cc2)CCN(c2ccnc3ccc(F)cc23)CC1 [Example 226, 4-Chloro-N-((1-(6-fluoroquinolin-4-yl)-4-methylpiperidin-4-yl)methyl)benzamide] | > 5.70
CCC(NC(=O)c1ccc(Cl)cc1)C1CCC(c2cccc(C(F)F)n2)CC1 (single isomer, unassigned) [Example 231c, 4-chloro-N-(1-(4-(6-(difluoromethyl)pyridin-2-yl)cyclohexyl)propyl)benzamide] | > 5.70
CCC(NC(=O)c1ccc(Cl)cc1)[C@H]1CC[C@H](Oc2ccnc3ccccc23)CC1 (mixture of isomers) [Example 71, 4-Chloro-N-(1-((trans)-4-(quinolin-4-yloxy)cyclohexyl)propyl)benzamide] | > 7.30
CC(NC(=O)c1ccc(Cl)cc1)C1CCC(c2ccnc(C(F)(F)F)c2)CC1 (stereo not drawn) [Example 211, 4-chloro-N-(1-(4-(2-(trifluoromethyl)pyridin-4-yl)cyclohcxyl)ethyl)benzamide] | > 6.60
C[C@@H](NC(=O)c1ccc(-c2ccc(C(C)(C)O)cc2)cc1)[C@H]1CC[C@@H](c2ccnc3ccc(F)cc32)CC1 [Example 242, N-((R)-1-((1s,4S)-4-(6-fluoroquinolin-4-yl)cyclohexyl)ethyl)-4′-(2-hydroxypropan-2-yl)biphenyl-4-carboxamide] | > 6.60
